# According to ChEMBL document CHEMBL4507261, “Data for DCP probe A-192621” (2021):
# Columns and labels:
# [1] = target: Translocator protein (Rattus norvegicus) (UniProt P16257); experiment: BZD (peripheral) Eurofins-Cerep binding assay; parameters: ligand concentration 0.2 nM; conditions: filed as antagonist, Compound concentration 10.0 uM
# [2] = target: Peroxisome proliferator-activated receptor gamma (Homo sapiens) (UniProt P37231); experiment: PPARgamma (h) Eurofins-Cerep binding assay; parameters: ligand concentration 5 nM; conditions: filed as agonist, Compound concentration 10.0 uM
# [3] = target: 5-hydroxytryptamine receptor 2B (Homo sapiens) (UniProt P41595); experiment: 5-HT2B (h) Eurofins-Cerep binding assay; parameters: ligand concentration 0.2 nM; conditions: filed as agonist, Compound concentration 10.0 uM
# [4] = target: Sodium-dependent noradrenaline transporter (Homo sapiens) (UniProt P23975); experiment: norepinephrine transporter (h) Eurofins-Cerep binding assay; conditions: filed as antagonist, Compound concentration 10.0 uM
# [5] = test system: Tyrosine-protein kinase ABL1 (Homo sapiens), P00519 [T315I]; conditions: Compound concentration 1000.0 nM
# [6] = target: Activin receptor type-1 (Homo sapiens) (UniProt Q04771); conditions: Compound concentration 1000.0 nM
# [7] = target: Activin receptor type-2B (Homo sapiens) (UniProt Q13705); conditions: Compound concentration 1000.0 nM
# [8] = target: 5'-AMP-activated protein kinase catalytic subunit alpha-2 (Homo sapiens) (UniProt P54646); conditions: Compound concentration 1000.0 nM
# [9] = target: Ankyrin repeat and protein kinase domain-containing protein 1 (Homo sapiens) (UniProt Q8NFD2); conditions: Compound concentration 1000.0 nM
# [10] = target: Mitogen-activated protein kinase kinase kinase 6 (Homo sapiens) (UniProt O95382); conditions: Compound concentration 1000.0 nM
# Mitogen-activated protein kinase kinase kinase 6 (Homo sapiens), sequence (O95382 whole entry): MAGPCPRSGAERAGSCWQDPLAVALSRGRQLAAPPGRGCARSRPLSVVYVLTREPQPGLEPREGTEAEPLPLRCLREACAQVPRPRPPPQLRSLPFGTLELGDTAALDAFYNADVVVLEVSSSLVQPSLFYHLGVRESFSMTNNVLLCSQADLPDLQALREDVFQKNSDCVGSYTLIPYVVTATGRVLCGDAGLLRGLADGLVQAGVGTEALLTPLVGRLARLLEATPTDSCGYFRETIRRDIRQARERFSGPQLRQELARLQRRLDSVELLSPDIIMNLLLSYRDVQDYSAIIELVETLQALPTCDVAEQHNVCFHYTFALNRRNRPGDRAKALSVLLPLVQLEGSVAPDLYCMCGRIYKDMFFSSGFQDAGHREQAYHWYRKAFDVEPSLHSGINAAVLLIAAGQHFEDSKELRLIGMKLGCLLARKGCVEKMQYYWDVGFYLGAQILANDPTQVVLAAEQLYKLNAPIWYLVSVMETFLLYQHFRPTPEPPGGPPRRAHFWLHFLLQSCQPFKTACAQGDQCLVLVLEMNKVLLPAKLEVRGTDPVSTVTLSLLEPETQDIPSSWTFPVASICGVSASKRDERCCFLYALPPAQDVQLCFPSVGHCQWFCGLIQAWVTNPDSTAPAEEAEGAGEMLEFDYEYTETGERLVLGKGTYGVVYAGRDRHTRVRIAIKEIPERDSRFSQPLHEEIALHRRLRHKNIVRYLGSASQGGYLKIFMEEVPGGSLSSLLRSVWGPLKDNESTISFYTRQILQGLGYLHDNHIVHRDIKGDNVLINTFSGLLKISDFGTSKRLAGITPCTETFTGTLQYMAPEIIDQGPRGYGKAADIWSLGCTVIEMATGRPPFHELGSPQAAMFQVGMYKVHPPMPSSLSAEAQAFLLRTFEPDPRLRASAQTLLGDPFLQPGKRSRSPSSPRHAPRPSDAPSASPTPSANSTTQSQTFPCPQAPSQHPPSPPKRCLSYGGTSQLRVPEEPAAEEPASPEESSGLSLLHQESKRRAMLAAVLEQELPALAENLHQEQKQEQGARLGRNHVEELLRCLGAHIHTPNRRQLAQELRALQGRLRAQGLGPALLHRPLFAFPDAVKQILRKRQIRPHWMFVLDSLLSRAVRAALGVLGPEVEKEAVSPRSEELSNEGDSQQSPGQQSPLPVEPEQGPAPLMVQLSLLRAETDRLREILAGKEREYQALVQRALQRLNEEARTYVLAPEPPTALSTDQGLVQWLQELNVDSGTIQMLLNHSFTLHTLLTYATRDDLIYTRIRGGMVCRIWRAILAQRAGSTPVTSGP
# [11] = target: Aurora kinase A (Homo sapiens) (UniProt O14965); conditions: Compound concentration 1000.0 nM
# [12] = target: Bone morphogenetic protein receptor type-1B (Homo sapiens) (UniProt O00238); conditions: Compound concentration 1000.0 nM
# [13] = target: Bone morphogenetic protein receptor type-2 (Homo sapiens) (UniProt Q13873); conditions: Compound concentration 1000.0 nM
# [14] = target: Calcium/calmodulin-dependent protein kinase type II subunit alpha (Homo sapiens) (UniProt Q9UQM7); conditions: Compound concentration 1000.0 nM
# [15] = target: Cyclin-dependent kinase 11B (Homo sapiens) (UniProt P21127); conditions: Compound concentration 1000.0 nM
# [16] = target: Cyclin-dependent kinase 11A (Homo sapiens) (UniProt Q9UQ88); conditions: Compound concentration 1000.0 nM
# Cyclin-dependent kinase 11A (Homo sapiens), sequence (Q9UQ88 whole entry): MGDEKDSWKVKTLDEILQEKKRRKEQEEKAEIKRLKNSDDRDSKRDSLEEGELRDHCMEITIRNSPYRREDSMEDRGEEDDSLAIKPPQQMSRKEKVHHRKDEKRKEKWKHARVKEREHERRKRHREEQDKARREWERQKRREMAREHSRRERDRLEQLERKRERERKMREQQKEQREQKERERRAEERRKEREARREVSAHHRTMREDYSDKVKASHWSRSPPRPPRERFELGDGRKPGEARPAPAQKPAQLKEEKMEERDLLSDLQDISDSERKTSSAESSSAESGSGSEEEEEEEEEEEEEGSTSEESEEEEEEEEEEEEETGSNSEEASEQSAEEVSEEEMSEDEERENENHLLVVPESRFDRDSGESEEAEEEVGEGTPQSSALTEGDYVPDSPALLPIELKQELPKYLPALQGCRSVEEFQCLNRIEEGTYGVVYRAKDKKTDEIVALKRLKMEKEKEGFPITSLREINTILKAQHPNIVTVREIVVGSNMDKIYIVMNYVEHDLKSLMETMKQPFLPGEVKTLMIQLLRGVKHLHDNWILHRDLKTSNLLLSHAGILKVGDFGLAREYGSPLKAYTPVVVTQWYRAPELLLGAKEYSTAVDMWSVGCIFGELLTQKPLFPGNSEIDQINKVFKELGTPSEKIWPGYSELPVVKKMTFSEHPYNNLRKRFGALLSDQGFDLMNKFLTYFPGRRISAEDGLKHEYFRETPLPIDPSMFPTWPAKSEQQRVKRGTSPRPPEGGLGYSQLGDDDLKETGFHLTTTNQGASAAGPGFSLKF
# [17] = target: Cyclin-dependent kinase 3 (Homo sapiens) (UniProt Q00526); conditions: Compound concentration 1000.0 nM
# [18] = target: Dual specificity protein kinase CLK4 (Homo sapiens) (UniProt Q9HAZ1); conditions: Compound concentration 1000.0 nM
# [19] = target: Casein kinase I isoform gamma-1 (Homo sapiens) (UniProt Q9HCP0); conditions: Compound concentration 1000.0 nM
# [20] = target: Receptor tyrosine-protein kinase erbB-4 (Homo sapiens) (UniProt Q15303); conditions: Compound concentration 1000.0 nM
# [21] = test system: Receptor-type tyrosine-protein kinase FLT3 (Homo sapiens), P36888 [D835H]; conditions: Compound concentration 1000.0 nM
# [22] = target: Cyclin-G-associated kinase (Homo sapiens) (UniProt O14976); conditions: Compound concentration 1000.0 nM
# [23] = test system: eIF-2-alpha kinase GCN2 (Homo sapiens), Q9P2K8 [S808G]; conditions: Compound concentration 1000.0 nM
# eIF-2-alpha kinase GCN2 (Homo sapiens), Q9P2K8 [S808G], sequence (Q9P2K8 whole entry S808G): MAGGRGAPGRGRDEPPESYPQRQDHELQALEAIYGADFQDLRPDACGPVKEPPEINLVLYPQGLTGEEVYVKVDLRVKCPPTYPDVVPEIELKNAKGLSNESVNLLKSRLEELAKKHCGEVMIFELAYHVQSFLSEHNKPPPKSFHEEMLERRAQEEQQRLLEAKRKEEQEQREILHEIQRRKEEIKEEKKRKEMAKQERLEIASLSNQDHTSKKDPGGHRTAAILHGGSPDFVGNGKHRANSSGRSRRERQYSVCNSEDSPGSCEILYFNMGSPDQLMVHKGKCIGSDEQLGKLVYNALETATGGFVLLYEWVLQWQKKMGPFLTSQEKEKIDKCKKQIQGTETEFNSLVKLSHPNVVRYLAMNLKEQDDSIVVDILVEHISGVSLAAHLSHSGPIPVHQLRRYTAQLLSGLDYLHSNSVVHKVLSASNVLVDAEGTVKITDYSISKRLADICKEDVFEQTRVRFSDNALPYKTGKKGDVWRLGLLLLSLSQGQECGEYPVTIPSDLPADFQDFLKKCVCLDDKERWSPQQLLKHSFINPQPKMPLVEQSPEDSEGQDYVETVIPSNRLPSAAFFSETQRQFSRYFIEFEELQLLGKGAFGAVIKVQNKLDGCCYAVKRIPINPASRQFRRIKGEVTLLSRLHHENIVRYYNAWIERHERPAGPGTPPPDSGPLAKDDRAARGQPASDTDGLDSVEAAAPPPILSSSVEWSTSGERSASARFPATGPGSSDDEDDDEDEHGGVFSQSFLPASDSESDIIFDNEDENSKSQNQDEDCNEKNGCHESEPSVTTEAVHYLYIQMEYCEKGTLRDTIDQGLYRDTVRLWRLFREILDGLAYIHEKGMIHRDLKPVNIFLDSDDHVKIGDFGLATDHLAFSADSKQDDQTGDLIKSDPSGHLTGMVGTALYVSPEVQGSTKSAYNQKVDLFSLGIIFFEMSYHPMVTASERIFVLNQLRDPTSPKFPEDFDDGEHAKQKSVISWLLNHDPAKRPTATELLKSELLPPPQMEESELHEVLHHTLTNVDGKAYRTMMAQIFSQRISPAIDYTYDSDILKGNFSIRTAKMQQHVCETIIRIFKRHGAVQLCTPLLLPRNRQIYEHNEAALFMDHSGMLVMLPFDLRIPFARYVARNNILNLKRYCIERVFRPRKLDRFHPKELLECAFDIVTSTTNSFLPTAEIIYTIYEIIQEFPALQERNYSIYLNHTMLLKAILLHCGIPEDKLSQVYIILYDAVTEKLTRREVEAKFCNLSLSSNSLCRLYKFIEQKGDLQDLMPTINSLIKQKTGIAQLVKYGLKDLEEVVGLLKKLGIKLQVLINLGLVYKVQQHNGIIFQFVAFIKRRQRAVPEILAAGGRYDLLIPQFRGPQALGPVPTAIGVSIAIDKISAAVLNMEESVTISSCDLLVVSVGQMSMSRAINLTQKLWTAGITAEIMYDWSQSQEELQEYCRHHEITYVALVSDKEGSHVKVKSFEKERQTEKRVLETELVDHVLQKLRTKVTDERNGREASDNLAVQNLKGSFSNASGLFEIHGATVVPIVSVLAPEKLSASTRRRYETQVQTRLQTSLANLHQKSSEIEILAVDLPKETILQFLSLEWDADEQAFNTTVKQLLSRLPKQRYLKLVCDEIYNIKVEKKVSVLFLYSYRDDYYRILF
# [24] = target: Beta-adrenergic receptor kinase 1 (Homo sapiens) (UniProt P25098); conditions: Compound concentration 1000.0 nM
# [25] = target: Interleukin-1 receptor-associated kinase 4 (Homo sapiens) (UniProt Q9NWZ3); conditions: Compound concentration 1000.0 nM
# [26] = target: Tyrosine-protein kinase ITK/TSK (Homo sapiens) (UniProt Q08881); conditions: Compound concentration 1000.0 nM
# [27] = test system: Mast/stem cell growth factor receptor Kit (Homo sapiens), P10721 [D816V]; conditions: Compound concentration 1000.0 nM
# [28] = test system: Mast/stem cell growth factor receptor Kit (Homo sapiens), P10721 [V559D]; conditions: Compound concentration 1000.0 nM
# [29] = target: Leucine-rich repeat serine/threonine-protein kinase 2 (Homo sapiens) (UniProt Q5S007); conditions: Compound concentration 1000.0 nM
# [30] = target: MAP kinase-activated protein kinase 2 (Homo sapiens) (UniProt P49137); conditions: Compound concentration 1000.0 nM
# [31] = target: Phosphatidylinositol 3-kinase C2 domain-containing subunit gamma (Homo sapiens) (UniProt O75747); conditions: Compound concentration 1000.0 nM
# [32] = target: Serine/threonine-protein kinase PLK1 (Homo sapiens) (UniProt P53350); conditions: Compound concentration 1000.0 nM
# Serine/threonine-protein kinase PLK1 (Homo sapiens), sequence (P53350 whole entry): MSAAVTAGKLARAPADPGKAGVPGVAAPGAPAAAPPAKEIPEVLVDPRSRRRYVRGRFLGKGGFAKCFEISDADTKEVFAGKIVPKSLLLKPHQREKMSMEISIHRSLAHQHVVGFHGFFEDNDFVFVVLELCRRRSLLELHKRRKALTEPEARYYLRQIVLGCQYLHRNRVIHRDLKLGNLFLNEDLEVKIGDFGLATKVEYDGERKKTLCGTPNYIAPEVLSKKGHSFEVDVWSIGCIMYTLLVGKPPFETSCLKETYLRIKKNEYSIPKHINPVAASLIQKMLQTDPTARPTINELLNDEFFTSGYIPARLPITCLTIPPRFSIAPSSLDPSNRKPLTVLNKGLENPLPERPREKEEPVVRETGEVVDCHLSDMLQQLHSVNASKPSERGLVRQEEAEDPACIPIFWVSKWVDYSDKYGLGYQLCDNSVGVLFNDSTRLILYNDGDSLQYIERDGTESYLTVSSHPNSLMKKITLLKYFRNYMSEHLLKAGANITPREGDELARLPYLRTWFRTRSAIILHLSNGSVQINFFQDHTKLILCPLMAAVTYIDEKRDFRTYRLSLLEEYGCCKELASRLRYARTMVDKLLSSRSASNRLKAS
# [33] = target: Serine/threonine-protein kinase PLK2 (Homo sapiens) (UniProt Q9NYY3); conditions: Compound concentration 1000.0 nM
# [34] = target: Ribosomal protein S6 kinase alpha-4 (Homo sapiens) (UniProt O75676); conditions: Compound concentration 1000.0 nM
# [35] = target: Ribosomal protein S6 kinase alpha-1 (Homo sapiens) (UniProt Q15418); conditions: Compound concentration 1000.0 nM
# Ribosomal protein S6 kinase alpha-1 (Homo sapiens), sequence (Q15418 whole entry): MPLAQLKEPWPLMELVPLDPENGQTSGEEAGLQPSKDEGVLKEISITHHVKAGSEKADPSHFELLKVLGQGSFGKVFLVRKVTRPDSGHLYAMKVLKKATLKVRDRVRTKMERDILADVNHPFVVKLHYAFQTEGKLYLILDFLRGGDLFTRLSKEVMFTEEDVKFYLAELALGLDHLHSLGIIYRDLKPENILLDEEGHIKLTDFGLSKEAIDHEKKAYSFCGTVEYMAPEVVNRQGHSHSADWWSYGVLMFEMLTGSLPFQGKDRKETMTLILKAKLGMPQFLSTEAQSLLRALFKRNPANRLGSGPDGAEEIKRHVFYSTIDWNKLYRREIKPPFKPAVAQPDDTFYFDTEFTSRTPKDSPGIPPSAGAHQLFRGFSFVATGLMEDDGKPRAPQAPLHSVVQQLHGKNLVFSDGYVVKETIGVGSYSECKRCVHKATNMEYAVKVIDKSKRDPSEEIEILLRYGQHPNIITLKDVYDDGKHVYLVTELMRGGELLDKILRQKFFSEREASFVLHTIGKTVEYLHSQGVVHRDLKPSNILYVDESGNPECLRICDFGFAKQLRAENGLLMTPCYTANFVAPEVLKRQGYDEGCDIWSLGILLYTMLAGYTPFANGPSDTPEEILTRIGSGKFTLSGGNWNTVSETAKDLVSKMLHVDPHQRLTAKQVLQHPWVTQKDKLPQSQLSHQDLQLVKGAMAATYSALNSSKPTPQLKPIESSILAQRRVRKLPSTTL
# [36] = target: Serine/threonine-protein kinase Sgk1 (Homo sapiens) (UniProt O00141); conditions: Compound concentration 1000.0 nM
# [37] = target: Serine/threonine-protein kinase 36 (Homo sapiens) (UniProt Q9NRP7); conditions: Compound concentration 1000.0 nM
# [38] = target: Serine/threonine-protein kinase WNK1 (Homo sapiens) (UniProt Q9H4A3); conditions: Compound concentration 1000.0 nM
# [39] = target: Serine/threonine-protein kinase WNK3 (Homo sapiens) (UniProt Q9BYP7); conditions: Compound concentration 1000.0 nM
# [40] = target: Serine/threonine-protein kinase 32B (Homo sapiens) (UniProt Q9NY57); conditions: Compound concentration 1000.0 nM
# [41] = target: Serine/threonine-protein kinase 32C (Homo sapiens) (UniProt Q86UX6); conditions: Compound concentration 1000.0 nM
smiles,measurement,setting,value
CCCOc1ccc([C@H]2[C@H](C(=O)O)[C@@H](c3ccc4c(c3)OCO4)CN2CC(=O)Nc2c(CC)cccc2CC)cc1 [A-192621],% Inhibition of Control Specific Binding (Mean n=2),[1],72.1%
same,% Inhibition of Control Specific Binding (Mean n=2),[2],40.3%
same,% Inhibition of Control Specific Binding (Mean n=2),[3],-1.9%
same,% Inhibition of Control Specific Binding (Mean n=2),[4],16.2%
same,residual activity,[5],77%
same,residual activity,[6],100%
same,residual activity,[7],93%
same,residual activity,[8],100%
same,residual activity,[9],65%
same,residual activity,[10],65%
same,residual activity,[11],93%
same,residual activity,[12],61%
same,residual activity,[13],53%
same,residual activity,[14],90%
same,residual activity,[15],100%
same,residual activity,[16],98%
same,residual activity,[17],95%
same,residual activity,[18],100%
same,residual activity,[19],100%
same,residual activity,[20],100%
same,residual activity,[21],92%
same,residual activity,[22],93%
same,residual activity,[23],90%
same,residual activity,[24],51%
same,residual activity,[25],76%
same,residual activity,[26],96%
same,residual activity,[27],92%
same,residual activity,[28],87%
same,residual activity,[29],79%
same,residual activity,[30],100%
same,residual activity,[31],75%
same,residual activity,[32],80%
same,residual activity,[33],79%
same,residual activity,[34],68%
same,residual activity,[35],87%
same,residual activity,[36],63%
same,residual activity,[37],98%
same,residual activity,[38],89%
same,residual activity,[39],90%
same,residual activity,[40],100%
same,residual activity,[41],100%
CCCOc1ccc([C@@H]2[C@@H](C(=O)O)[C@H](c3ccc4c(c3)OCO4)CN2CC(=O)Nc2c(CC)cccc2CC)cc1 [A-1806262],% Inhibition of Control Specific Binding (Mean n=2),[1],54.7%
same,% Inhibition of Control Specific Binding (Mean n=2),[2],67%
same,% Inhibition of Control Specific Binding (Mean n=2),[3],-16.5%
same,% Inhibition of Control Specific Binding (Mean n=2),[4],1.6%
same,residual activity,[5],82%
same,residual activity,[6],95%
same,residual activity,[7],96%
same,residual activity,[8],95%
same,residual activity,[9],73%
same,residual activity,[10],77%
same,residual activity,[11],94%
same,residual activity,[12],82%
same,residual activity,[13],69%
same,residual activity,[14],100%
same,residual activity,[15],94%
same,residual activity,[16],100%
same,residual activity,[17],100%
same,residual activity,[18],89%
same,residual activity,[19],97%
same,residual activity,[20],100%
same,residual activity,[21],100%
same,residual activity,[22],98%
same,residual activity,[23],100%
same,residual activity,[24],89%
same,residual activity,[25],100%
same,residual activity,[26],100%
same,residual activity,[27],99%
same,residual activity,[28],93%
same,residual activity,[29],84%
same,residual activity,[30],100%
same,residual activity,[31],78%
same,residual activity,[32],95%
same,residual activity,[33],86%
same,residual activity,[34],90%
same,residual activity,[35],100%
same,residual activity,[36],75%
same,residual activity,[37],88%
same,residual activity,[38],91%
same,residual activity,[39],94%
same,residual activity,[40],100%
same,residual activity,[41],100%
